The values below are quoted from earlier work in patent publication US20230354819A1 (priority 2020, published 2023).

One data set concerns Staphylococcus aureus. Details: unit not given here. The following applies: variety of clinically relevant fungi and gram-positive bacteria such a Staphylococcus aureus; ChemMedChem 7, 871-882, 2012.
The subject of data set [1] is plant pathogenic fungi such as Fusarium oxysporum, Aspergillus niger, Aspergillus oryzae, and Penicillium thomii. The following applies: J. Antibiotics 49(2), 129-135, 1996; 50(3), 220-228, 1997.
Another data set concerns Fusarium oxysporum. The conditions noted are these: WO 2006/016558.

Bridge positions count the residues as written; N and C are the ends. Square brackets hold non-standard residues; d marks the D form. Peptide text beside a SMILES is read from it. * marks the point of attachment. ξ: configuration not given here. Pentadecanoyl(3ξ-OH,15-Gua) = N=C(N)NCCCCCCCCCCCCC(O)CC(=O)*; d(aThr) = C[C@@H](O)[C@@H](N)C(=O)O; Thr(3ξ) = CC(O)[C@H](N)C(=O)O; ξY = NC(Cc1ccc(O)cc1)C(=O)O

On to `CC(C)[C@@H]1NC(=O)[C@@H](C(C)C)NC(=O)[C@@H](NC(=O)CC(O)CCCCCCCCCCCCN=C(N)N)[C@@H](C)OC(=O)[C@@H](C)NC(=O)[C@@H](CC(N)=O)NC(=O)[C@@H]([C@@H](C)O)NC1=O` (stereo partly shown) [fusaricidin A] ({Pentadecanoyl(3ξ-OH,15-Gua)}-T[dV]V[d(aThr)][dN][dA]; ester 1-C), for which the MIC value range in the data set on Staphylococcus aureus is 0.78-3.12. Moreover, in data set [1], the “inhibition of plant pathogenic fungi” value is “inhibit plant pathogenic fungi”. Besides, the “inhibition of growth of Fusarium oxysporum” value with Fusarium oxysporum is given as “inhibit growth”.

Regarding `CC1OC(=O)[C@@H](C)NC(=O)[C@@H](CCC(N)=O)NC(=O)[C@@H]([C@H](C)O)NC(=O)C(Cc2ccc(O)cc2)NC(=O)[C@@H](C(C)C)NC(=O)[C@H]1NC(=O)CC(O)CCCCCCCCCCCCN=C(N)N` (stereo partly shown) [fusaricidin D] ({Pentadecanoyl(3ξ-OH,15-Gua)}-[Thr(3ξ)][dV][ξY][dT][dQ][dA]; ester 1-C), in data set [1], the “inhibition of plant pathogenic fungi” value is on record as “inhibit plant pathogenic fungi”. Turning to `CC(C)[C@@H]1NC(=O)[C@@H](C(C)C)NC(=O)[C@@H](NC(=O)CC(O)CCCCCCCCCCCCN=C(N)N)C(C)OC(=O)[C@@H](C)NC(=O)[C@@H](CCC(N)=O)NC(=O)[C@@H]([C@H](C)O)NC1=O` (stereo in doubt) [fusaricidin B], in data set [1], the “inhibition of plant pathogenic fungi” value is on record as “inhibit plant pathogenic fungi”. Besides, the “inhibition of growth of Fusarium oxysporum” value in the data set with Fusarium oxysporum is listed as “inhibit growth”. For `CC1OC(=O)[C@@H](C)NC(=O)[C@@H](CC(N)=O)NC(=O)[C@@H]([C@H](C)O)NC(=O)C(Cc2ccc(O)cc2)NC(=O)[C@@H](C(C)C)NC(=O)[C@H]1NC(=O)CC(O)CCCCCCCCCCCCN=C(N)N` (stereo partly shown) [fusaricidin C] ({Pentadecanoyl(3ξ-OH,15-Gua)}-[Thr(3ξ)][dV][ξY][dT][dN][dA]; ester 1-C), in data set [1], the “inhibition of plant pathogenic fungi” value is given as “inhibit plant pathogenic fungi”.
